# From publication PMC6222843, “Reversal Effect of Oxypeucedanin on P-glycoprotein-mediated Drug Transport” (Molecules : A Journal of Synthetic Chemistry and Natural …, 2018)
# Counter-ions that a name gives are not always drawn. Like-named read-outs stand apart in the source and are kept apart here.
# Experiments:
# [1] = Plasma pharmacokinetics of DTX in rats with or without OPD (LC-MS/MS); conditions: male, Sprague-Dawley, rat, po, 50 mg/kg
# Description: Ten 8-week-old male Sprague-Dawley rats were randomly divided into the following two groups (5 rats in each group). Group 1: rats were administered a single oral dose of 50 mg/kg of DTX dissolved in 0.5% CMC-Na. […] Blood samples were centrifuged for 10 min at approximately 4000 rpm. 100 µL of plasma was collected from the upper layer, and mixed with 20 µL of taxol internal standard solution for 30 s followed by 500 µL of methanol for 3 min, then centrifuged at 15,000 rpm for 10 min. The supernatant was separated and collected. 5 μL of the supernatant was injected into the LC-MS/MS system for detection and quantification.
# Separation was performed on a ZORBAX Extend-C18 (2.1 × 100 mm, 3.5 µm, Agilent, Palo Alto, CA, USA). The column oven was maintained at 25 °C.
# MDR1 = test: RT-qPCR of MDR1 mRNA expression in MDCK-MDR1 cells; assay type: cell-based, human; conditions: OPD 3.5, 17.5 and 70 μmol/L for 48 h, compared to untreated cells
# Description: MDCK-MDR1 cells were cultured for 5 days and treated with different concentrations of OPD (3.5, 17.5 and 70 μmol/L) for 48 h to measure MDR1 gene expression level. The total celluar RNA was extracted by the RNA easy Total RNA mini kit and reverse transcribed to cDNA with reverse transcription kit according to the manufacturer’s protocol. PCR primer design and synthesis were performed by the primer design software provided by Applied Biosystems. Primer sequences for MDR1 and hRpIPIv-F (loading internal control) genes are as follows: human hRpIP1v-F forward, 5′-[…]-3′; human hRpIP1v-F reverse, 5′-[…]-3′; human MDR1 forward, 5′-[…]-3′, human MDR1 reverse, 5′-[…]-3′. PCR amplification was performed using Power SYBR Green PCR Mix according to the manufacturer’s protocol (Life Technologies, Carlsbad, CA, USA).
# [2] = biological target: recombinant human P-gp membranes (Homo sapiens, UniProt P08183); conditions: compared to basal P-gp ATPase activity
# Chain of recombinant human P-gp membranes (P08183 whole entry): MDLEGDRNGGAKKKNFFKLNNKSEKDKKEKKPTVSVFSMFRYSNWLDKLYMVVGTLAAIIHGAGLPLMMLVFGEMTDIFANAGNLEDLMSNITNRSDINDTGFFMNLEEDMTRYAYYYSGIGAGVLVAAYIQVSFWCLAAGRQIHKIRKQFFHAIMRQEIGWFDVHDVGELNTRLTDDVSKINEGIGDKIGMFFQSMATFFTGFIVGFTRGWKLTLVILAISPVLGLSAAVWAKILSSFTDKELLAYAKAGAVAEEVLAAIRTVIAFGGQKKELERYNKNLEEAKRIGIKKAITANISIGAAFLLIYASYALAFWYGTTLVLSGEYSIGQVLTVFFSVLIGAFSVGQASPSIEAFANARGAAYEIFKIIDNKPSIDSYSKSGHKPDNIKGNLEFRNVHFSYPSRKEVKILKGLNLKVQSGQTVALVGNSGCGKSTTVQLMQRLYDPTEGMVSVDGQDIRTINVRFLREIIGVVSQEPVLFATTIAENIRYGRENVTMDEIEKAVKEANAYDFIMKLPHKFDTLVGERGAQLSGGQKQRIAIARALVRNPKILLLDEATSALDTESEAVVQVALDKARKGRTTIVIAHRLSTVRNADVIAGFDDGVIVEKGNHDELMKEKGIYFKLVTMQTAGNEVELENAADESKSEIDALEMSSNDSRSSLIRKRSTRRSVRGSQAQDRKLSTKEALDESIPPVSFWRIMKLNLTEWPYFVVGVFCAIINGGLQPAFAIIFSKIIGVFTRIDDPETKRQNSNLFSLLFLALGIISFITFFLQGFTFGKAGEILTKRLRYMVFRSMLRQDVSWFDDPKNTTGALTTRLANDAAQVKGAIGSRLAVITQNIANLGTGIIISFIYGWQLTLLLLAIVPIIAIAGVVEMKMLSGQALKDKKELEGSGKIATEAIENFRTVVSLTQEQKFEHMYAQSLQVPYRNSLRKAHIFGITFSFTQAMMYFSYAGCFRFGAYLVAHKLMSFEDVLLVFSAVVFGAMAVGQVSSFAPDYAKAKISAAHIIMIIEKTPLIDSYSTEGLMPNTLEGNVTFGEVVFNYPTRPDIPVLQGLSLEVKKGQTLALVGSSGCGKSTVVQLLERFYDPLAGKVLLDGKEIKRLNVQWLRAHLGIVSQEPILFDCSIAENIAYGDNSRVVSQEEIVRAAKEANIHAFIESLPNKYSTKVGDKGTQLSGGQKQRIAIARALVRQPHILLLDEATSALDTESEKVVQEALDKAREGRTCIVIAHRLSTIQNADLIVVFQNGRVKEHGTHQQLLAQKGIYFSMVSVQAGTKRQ
# Description: P-gp ATPase activity was measured using P-gp-Glo™ assay systems kit according to the manufacturer’s instructions, the method detail of which was also described in our previous study [29]. […] After 40 min, ATP detection reagent was added, respectively. The unconsumed ATP detection reagent reacted with luciferase at room temperature for 20 min and the chemiluminescence intensity was detected. The average relative light units (RLU) was calculated as follows:RLUNa3VO4 − RLUNT = ΔRLUbasal(1) RLUNa3VO4 − RLUTC = ΔRLUTC(2)
# ΔRLUbasal, the decrease in luminescence of the untreated group (RLUNT) compared to the Na3VO4 group (RLUNa3VO4), represents the basal P-gp ATPase activity. ΔRLUTC, the decrease in luminescence of the test compound-treated group (RLUTC) compared to the Na3VO4 group (RLUNa3VO4), indicates the P-gp ATPase activity in the presence of the test compound. The decrease in luminescence reflect ATP consumption by P-gp and is proportional to P-gp activity.
# MDCK-MDR1 cells = test: MTT assay, viability of MDCK-MDR1 cells; assay type: cell-based, canine
# Description: The effects of OPD and VCR on the viability of MDCK-MDR1 cells were observed by a MTT assay.
# MDCK-MDR1 Cells were obtained from Shanghai Zhongya Institute of Biological Genes Institute (CinoAsia Co., Ltd., Shanghai, China). Cells were cultured as previously described. In brief, cells were cultured in high glucose DMEM medium supplemented with 10% fetal bovine serum (FBS), 1% non-essential amino acids, 1% L-glutamine, and a penicillin-streptomycin double antibiotic solution. Cells were incubated at 37 °C with 5% CO2 and cell medium was changed every other day.
# P-gp = test: Western blotting of P-gp protein expression in MDCK-MDR1 cells; assay type: cell-based, canine; conditions: OPD 17.5 and 70 μmol/L for 48 h, in comparison with control group
# Description: MDCK-MDR1 cells treated with different concentrations of OPD (3.5, 17.5 and 70 μmol/L) for 48 h were subject to western blotting for determination of P-gp protein level. Cells were washed 3 times with PBS. Total protein was extracted and the protein concentrations were measured according to the manufacturer’s instructions. Cell protein were denatured at 70 °C for 10 min. Protein samples with equivalent amounts were loaded and separated by 10% SDS-polyacrylamide gel electrophoresis and transferred to a polyvinylidene difluoride membranes. Membranes were blocked in 5% powdered non-fat milk solution for 4 h at room temperature and incubated with anti-P-gp primary antibody (GADPH was used as a loading control) overnight at 4 °C followed by an goat anti-mouse IgG secondary antibody (1:5000 dilutions) for 4 h at room temperature. Membranes were incubated with an ECL chromogenic solution for 4 min in the dark. The target protein bands were detected and protein intensity was calculated by a gel imaging system (Beta 3, Bio-Rad, Irvine, CA, USA).
# [3] = Transport of VCR across MDCK-MDR1 cell monolayer (A→B); assay type: in vitro ADME, canine; conditions: dog, MDCK-MDR1, pH 7.4, VCR 264.46 μmol/L alone, 37 °C, n = 3
# Description: Briefly, cell monolayers were pre-incubated in Hank’s buffered salt solution (HBSS, pH 7.4) for 30 min at 37 °C. Trans-epithelial electric resistance (TEER) values of the MDCK-MDR1 cell monolayer ranged from 500 to 800 Ω·cm^2. All drugs were dissolved in DMSO and diluted in HBSS. The final concentration of DMSO is less than 1%. […] After treatments, cells were incubated at 37 °C for 2 h. After 2 h, 500 µL aliquots were taken from the basal side, mixed with 500 µL methanol, vortexed 2 min and then centrifuged for 10 min at 16,000 rpm. The supernatants were collected to measure the concentrations of compounds by high performance liquid-chromatography/mass spectroscopy (LC-MS/MS). Apparent permeability (Papp) values are calculated from the relationship: Papp=dQ/dt/A×C0 where dQ/dt is the cumulative transport rate of the compound on the receiving side (µg/s), A is the surface area of the cell monolayer (cm^2), and C0 is the initial concentration in the donor compartment (µg/mL).
structure (smiles),measurement,setting,value
"CC(=O)O[C@@]12CO[C@@H]1C[C@H](O)[C@@]1(C)C(=O)[C@H](O)C3=C(C)[C@@H](OC(=O)[C@H](O)[C@@H](NC(=O)OC(C)(C)C)c4ccccc4)C[C@@](O)([C@@H](OC(=O)c4ccccc4)[C@H]21)C3(C)C [DTX, Docetaxel]",AUC(0-inf),[1],306 ± 21.1 ng·h/mL
same,AUC(0-t),[1],276 ± 19.1 ng·h/mL
same,Cmax,[1],118 ± 10.9 ng/mL
same,MRT inf,[1],4.29 ± 0.98 h
same,MRT last,[1],2.96 ± 0.22 h
same,half-life,[1],4.13 ± 1.08 h
"CC1(C)O[C@H]1COc1c2ccoc2cc2oc(=O)ccc12 [OPD, Oxypeucedanin]",mRNA expression of MDR1,MDR1,significantly downregulated
same,increase in P-gp ATPase activity,[2]; OPD 3.5 μmol/L,0.55 fold
same,increase in P-gp ATPase activity,[2]; OPD 17.5 μmol/L,0.31 fold
same,increase in P-gp ATPase activity,[2]; OPD 70 μmol/L,0.50 fold
same,"cytotoxicity (viability of MDCK-MDR1 cells, MTT assay)","MDCK-MDR1 cells; OPD 3.82, 19.08, 76.30 μmol/L",no obvious cytotoxicity
same,P-gp protein expression,P-gp,obvious reduction
"CC[C@]1(O)C[C@H]2CN(CCc3c([nH]c4ccccc34)[C@@](C(=O)OC)(c3cc4c(cc3OC)N(C=O)[C@H]3[C@@](O)(C(=O)OC)[C@H](OC(C)=O)[C@]5(CC)C=CCN6CC[C@]43[C@@H]65)C2)C1 [VCR, Vincristine sulfate]","Papp A→B at 2 h, 264.46 μmol/L",[3],0.37 ± 0.04 ×10⁻⁶ cm/s
same,"cytotoxicity (viability of MDCK-MDR1 cells, MTT assay)",MDCK-MDR1 cells; VCR 264.46 μmol/L,no obvious cytotoxicity
